In the supplement of paper PMC10307832:

How the values were obtained:
Assay in all cases: relative viability (nuclei count vs DMSO), 5 days (fraction); higher = more cells survive
GSK-J4 + Bortezomib = compound: CCOC(=O)CCNc1cc(N2CCc3ccccc3CC2)nc(-c2ccccn2)n1 [GSK-J4] + CC(C)C[C@H](NC(=O)[C@H](Cc1ccccc1)NC(=O)c1cnccn1)B(O)O [Bortezomib] (partner 0.002 µM)
Method in brief: (§1)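 Each reported value is a median over duplicate plates. It expresses relative viability: treated-well nuclei count divided by vehicle-well nuclei count. Lung cancer cell lines in 1536-well plates were dosed by pin tool a day after seeding, alone with one drug or with a fixed anchor-drug dose plus five library-drug doses (not always all listed) in √10 steps, and nuclei were counted after 5 days.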

AZ3146 + Phenformin = compound: CN1CCC(CC1)OC2=CC(=C(C=C2)NC3=NC=C4C(=N3)N(C(=O)N4C)C5CCCC5)OC [AZ3146] + N=C(N)NC(=N)NCCc1ccccc1 [Phenformin] (partner 250 µM)
Method in brief: as §1

GSK-J4 + Navitoclax = compound: CCOC(=O)CCNc1cc(N2CCc3ccccc3CC2)nc(-c2ccccn2)n1 [GSK-J4] + CC1(C)CCC(c2ccc(Cl)cc2)=C(CN2CCN(c3ccc(C(=O)NS(=O)(=O)c4ccc(N[C@H](CCN5CCOCC5)CSc5ccccc5)c(S(=O)(=O)C(F)(F)F)c4)cc3)CC2)C1 [Navitoclax] (partner 0.5 µM)
Method in brief: as §1

GSK-J4 + Pemetrexed = compound: CCOC(=O)CCNc1cc(N2CCc3ccccc3CC2)nc(-c2ccccn2)n1 [GSK-J4] + Nc1nc2[nH]cc(CCc3ccc(C(=O)N[C@@H](CCC(=O)O)C(=O)O)cc3)c2c(=O)[nH]1 [Pemetrexed] (partner 0.2 µM)
Method in brief: as §1

## LCLC-97TM1
GSK-J4 + Bortezomib; first compound 0.5 µM
  relative viability: 0.981
GSK-J4 + Bortezomib; first compound 5 µM
  relative viability: 0.393
GSK-J4 + Bortezomib; first compound 15.81 µM
  relative viability: 0.449
GSK-J4 + Bortezomib; first compound 50 µM
  relative viability: 0.526
AZ3146 + Phenformin; first compound 0.08 µM
  relative viability: 0.386
AZ3146 + Phenformin; first compound 0.253 µM
  relative viability: 0.411
AZ3146 + Phenformin; first compound 0.8 µM
  relative viability: 0.326
AZ3146 + Phenformin; first compound 2.53 µM
  relative viability: 0.433
AZ3146 + Phenformin; first compound 8 µM
  relative viability: 0.448
GSK-J4 + Navitoclax; first compound 5 µM
  relative viability: 0.43
GSK-J4 + Navitoclax; first compound 15.81 µM
  relative viability: 0.178
GSK-J4 + Navitoclax; first compound 50 µM
  relative viability: 0.307
GSK-J4 + Pemetrexed; first compound 0.5 µM
  relative viability: 0.15
GSK-J4 + Pemetrexed; first compound 1.581 µM
  relative viability: 0.153
GSK-J4 + Pemetrexed; first compound 5 µM
  relative viability: 0.198
GSK-J4 + Pemetrexed; first compound 15.81 µM
  relative viability: 0.148
GSK-J4 + Pemetrexed; first compound 50 µM
  relative viability: 0.181

## LOU-NH91
GSK-J4 + Bortezomib; first compound 0.5 µM
  relative viability: 0.525
GSK-J4 + Bortezomib; first compound 1.581 µM
  relative viability: 0.497
GSK-J4 + Bortezomib; first compound 5 µM
  relative viability: 0.426
GSK-J4 + Bortezomib; first compound 15.81 µM
  relative viability: 0.467
GSK-J4 + Bortezomib; first compound 50 µM
  relative viability: 0.621
AZ3146 + Phenformin; first compound 0.08 µM
  relative viability: 0.736
AZ3146 + Phenformin; first compound 0.253 µM
  relative viability: 0.565
AZ3146 + Phenformin; first compound 0.8 µM
  relative viability: 0.768
AZ3146 + Phenformin; first compound 2.53 µM
  relative viability: 0.761
AZ3146 + Phenformin; first compound 8 µM
  relative viability: 0.76
GSK-J4 + Navitoclax; first compound 0.5 µM
  relative viability: 0.733
GSK-J4 + Navitoclax; first compound 1.581 µM
  relative viability: 0.743
GSK-J4 + Navitoclax; first compound 5 µM
  relative viability: 0.577
GSK-J4 + Navitoclax; first compound 15.81 µM
  relative viability: 0.571
GSK-J4 + Navitoclax; first compound 50 µM
  relative viability: 0.764
GSK-J4 + Pemetrexed; first compound 0.5 µM
  relative viability: 0.39
GSK-J4 + Pemetrexed; first compound 1.581 µM
  relative viability: 0.381
GSK-J4 + Pemetrexed; first compound 5 µM
  relative viability: 0.36
GSK-J4 + Pemetrexed; first compound 15.81 µM
  relative viability: 0.346
GSK-J4 + Pemetrexed; first compound 50 µM
  relative viability: 0.441

## LU99A
GSK-J4 + Bortezomib; first compound 0.5 µM
  relative viability: 1.07
GSK-J4 + Bortezomib; first compound 1.581 µM
  relative viability: 0.777
GSK-J4 + Bortezomib; first compound 5 µM
  relative viability: 0.777
GSK-J4 + Bortezomib; first compound 15.81 µM
  relative viability: 1.21
GSK-J4 + Bortezomib; first compound 50 µM
  relative viability: 0.632
AZ3146 + Phenformin; first compound 0.08 µM
  relative viability: 0.687
AZ3146 + Phenformin; first compound 0.253 µM
  relative viability: 0.841
AZ3146 + Phenformin; first compound 0.8 µM
  relative viability: 0.676
AZ3146 + Phenformin; first compound 2.53 µM
  relative viability: 0.8
AZ3146 + Phenformin; first compound 8 µM
  relative viability: 0.842
GSK-J4 + Navitoclax; first compound 0.5 µM
  relative viability: 0.788
GSK-J4 + Navitoclax; first compound 1.581 µM
  relative viability: 0.746
GSK-J4 + Navitoclax; first compound 5 µM
  relative viability: 0.852
GSK-J4 + Navitoclax; first compound 15.81 µM
  relative viability: 0.814
GSK-J4 + Navitoclax; first compound 50 µM
  relative viability: 0.633
GSK-J4 + Pemetrexed; first compound 0.5 µM
  relative viability: 0.16
GSK-J4 + Pemetrexed; first compound 1.581 µM
  relative viability: 0.158
GSK-J4 + Pemetrexed; first compound 15.81 µM
  relative viability: 0.178
GSK-J4 + Pemetrexed; first compound 50 µM
  relative viability: 0.166

## LXF-289
GSK-J4 + Bortezomib; first compound 0.5 µM
  relative viability: 0.952
GSK-J4 + Bortezomib; first compound 1.581 µM
  relative viability: 0.866
GSK-J4 + Bortezomib; first compound 5 µM
  relative viability: 1
GSK-J4 + Bortezomib; first compound 15.81 µM
  relative viability: 0.994
GSK-J4 + Bortezomib; first compound 50 µM
  relative viability: 1.02
AZ3146 + Phenformin; first compound 0.08 µM
  relative viability: 0.535
AZ3146 + Phenformin; first compound 0.253 µM
  relative viability: 0.49
AZ3146 + Phenformin; first compound 0.8 µM
  relative viability: 0.524
AZ3146 + Phenformin; first compound 2.53 µM
  relative viability: 0.528
AZ3146 + Phenformin; first compound 8 µM
  relative viability: 0.43
GSK-J4 + Navitoclax; first compound 0.5 µM
  relative viability: 0.864
GSK-J4 + Navitoclax; first compound 1.581 µM
  relative viability: 0.838
GSK-J4 + Navitoclax; first compound 5 µM
  relative viability: 0.955
GSK-J4 + Navitoclax; first compound 15.81 µM
  relative viability: 0.933
GSK-J4 + Navitoclax; first compound 50 µM
  relative viability: 0.867
GSK-J4 + Pemetrexed; first compound 0.5 µM
  relative viability: 0.835
GSK-J4 + Pemetrexed; first compound 1.581 µM
  relative viability: 0.776
GSK-J4 + Pemetrexed; first compound 5 µM
  relative viability: 0.931
GSK-J4 + Pemetrexed; first compound 15.81 µM
  relative viability: 0.805
GSK-J4 + Pemetrexed; first compound 50 µM
  relative viability: 0.813

## NCI-H23
GSK-J4 + Bortezomib; first compound 0.5 µM
  relative viability: 0.987
GSK-J4 + Bortezomib; first compound 5 µM
  relative viability: 0.791
GSK-J4 + Bortezomib; first compound 15.81 µM
  relative viability: 1.03
GSK-J4 + Bortezomib; first compound 50 µM
  relative viability: 0.969
AZ3146 + Phenformin; first compound 0.08 µM
  relative viability: 0.823
AZ3146 + Phenformin; first compound 0.253 µM
  relative viability: 0.805
AZ3146 + Phenformin; first compound 0.8 µM
  relative viability: 0.832
AZ3146 + Phenformin; first compound 2.53 µM
  relative viability: 0.789
AZ3146 + Phenformin; first compound 8 µM
  relative viability: 0.8
GSK-J4 + Navitoclax; first compound 0.5 µM
  relative viability: 0.856
GSK-J4 + Navitoclax; first compound 5 µM
  relative viability: 0.886
GSK-J4 + Navitoclax; first compound 15.81 µM
  relative viability: 0.893
GSK-J4 + Navitoclax; first compound 50 µM
  relative viability: 0.867
GSK-J4 + Pemetrexed; first compound 0.5 µM
  relative viability: 0.679
GSK-J4 + Pemetrexed; first compound 1.581 µM
  relative viability: 0.525
GSK-J4 + Pemetrexed; first compound 5 µM
  relative viability: 0.653
GSK-J4 + Pemetrexed; first compound 15.81 µM
  relative viability: 0.568
GSK-J4 + Pemetrexed; first compound 50 µM
  relative viability: 0.598

## NCI-H322M
GSK-J4 + Bortezomib; first compound 0.5 µM
  relative viability: 1.3
GSK-J4 + Bortezomib; first compound 1.581 µM
  relative viability: 1.03
GSK-J4 + Bortezomib; first compound 5 µM
  relative viability: 1.67
GSK-J4 + Bortezomib; first compound 15.81 µM
  relative viability: 1.11
GSK-J4 + Bortezomib; first compound 50 µM
  relative viability: 1.02
AZ3146 + Phenformin; first compound 0.08 µM
  relative viability: 0.82
AZ3146 + Phenformin; first compound 0.253 µM
  relative viability: 0.811
AZ3146 + Phenformin; first compound 0.8 µM
  relative viability: 0.715
AZ3146 + Phenformin; first compound 2.53 µM
  relative viability: 0.833
AZ3146 + Phenformin; first compound 8 µM
  relative viability: 0.585
GSK-J4 + Navitoclax; first compound 0.5 µM
  relative viability: 1.18
GSK-J4 + Navitoclax; first compound 1.581 µM
  relative viability: 1.18
GSK-J4 + Navitoclax; first compound 5 µM
  relative viability: 1.29
GSK-J4 + Navitoclax; first compound 15.81 µM
  relative viability: 1.05
GSK-J4 + Navitoclax; first compound 50 µM
  relative viability: 1.17
GSK-J4 + Pemetrexed; first compound 0.5 µM
  relative viability: 0.638
GSK-J4 + Pemetrexed; first compound 1.581 µM
  relative viability: 0.588
GSK-J4 + Pemetrexed; first compound 5 µM
  relative viability: 0.672
GSK-J4 + Pemetrexed; first compound 15.81 µM
  relative viability: 0.394
GSK-J4 + Pemetrexed; first compound 50 µM
  relative viability: 0.682

## NCI-H441
GSK-J4 + Bortezomib; first compound 0.5 µM
  relative viability: 0.749
GSK-J4 + Bortezomib; first compound 1.581 µM
  relative viability: 0.497
GSK-J4 + Bortezomib; first compound 5 µM
  relative viability: 0.401
GSK-J4 + Bortezomib; first compound 15.81 µM
  relative viability: 0.538
GSK-J4 + Bortezomib; first compound 50 µM
  relative viability: 0.348
AZ3146 + Phenformin; first compound 0.08 µM
  relative viability: 0.762
AZ3146 + Phenformin; first compound 0.253 µM
  relative viability: 0.884
AZ3146 + Phenformin; first compound 0.8 µM
  relative viability: 0.812
AZ3146 + Phenformin; first compound 2.53 µM
  relative viability: 0.864
AZ3146 + Phenformin; first compound 8 µM
  relative viability: 0.737
GSK-J4 + Navitoclax; first compound 0.5 µM
  relative viability: 0.818
GSK-J4 + Navitoclax; first compound 1.581 µM
  relative viability: 0.362
GSK-J4 + Navitoclax; first compound 5 µM
  relative viability: 0.508
GSK-J4 + Navitoclax; first compound 15.81 µM
  relative viability: 0.667
GSK-J4 + Navitoclax; first compound 50 µM
  relative viability: 0.535
GSK-J4 + Pemetrexed; first compound 0.5 µM
  relative viability: 0.26
GSK-J4 + Pemetrexed; first compound 1.581 µM
  relative viability: 0.226
GSK-J4 + Pemetrexed; first compound 5 µM
  relative viability: 0.303
GSK-J4 + Pemetrexed; first compound 15.81 µM
  relative viability: 0.249
GSK-J4 + Pemetrexed; first compound 50 µM
  relative viability: 0.284

## NCI-H460
GSK-J4 + Bortezomib; first compound 0.5 µM
  relative viability: 1.02
GSK-J4 + Bortezomib; first compound 1.581 µM
  relative viability: 0.888
GSK-J4 + Bortezomib; first compound 5 µM
  relative viability: 1
GSK-J4 + Bortezomib; first compound 15.81 µM
  relative viability: 1.04
GSK-J4 + Bortezomib; first compound 50 µM
  relative viability: 0.985
AZ3146 + Phenformin; first compound 0.08 µM
  relative viability: 0.49
AZ3146 + Phenformin; first compound 0.253 µM
  relative viability: 0.493
AZ3146 + Phenformin; first compound 0.8 µM
  relative viability: 0.466
AZ3146 + Phenformin; first compound 2.53 µM
  relative viability: 0.515
AZ3146 + Phenformin; first compound 8 µM
  relative viability: 0.0767
GSK-J4 + Navitoclax; first compound 0.5 µM
  relative viability: 1.02
GSK-J4 + Navitoclax; first compound 1.581 µM
  relative viability: 0.984
GSK-J4 + Navitoclax; first compound 5 µM
  relative viability: 1.09
GSK-J4 + Navitoclax; first compound 15.81 µM
  relative viability: 1.22
GSK-J4 + Navitoclax; first compound 50 µM
  relative viability: 0.994
GSK-J4 + Pemetrexed; first compound 0.5 µM
  relative viability: 0.0749
GSK-J4 + Pemetrexed; first compound 5 µM
  relative viability: 0.0554
GSK-J4 + Pemetrexed; first compound 15.81 µM
  relative viability: 0.0643
GSK-J4 + Pemetrexed; first compound 50 µM
  relative viability: 0.0656
